Assay results: paper PMC3197600 (PLoS Pathogens, 2011)

Tests used:
Assay in all cases: biochemical
[1] = target: p57N2 (pandemic A/RI/5+/1957 H2N2 N2 neuraminidase) (Influenza A virus, UniProt Q194T1); parameters: species or system influenza A virus A/RI/5+/1957 H2N2
[2] = target: p09N1 (pH1N1 N1 neuraminidase) (Influenza A virus (A/California/04/2009(H1N1)), UniProt C3W5S3); parameters: species or system 2009 pandemic influenza A H1N1 virus
[3] = target: N5 (avian H12N5 neuraminidase) (Influenza A virus (A/duck/Alberta/60/1976(H12N5)), UniProt A1ILL9)

Row | SMILES | IC50 [1] | IC50 [2] | IC50 [3]
1 | [H]/N=C(\N)N[C@H]1C=C(C(=O)O)O[C@@H]([C@H](OC)[C@H](O)COC(=O)CCCCCCC)[C@@H]1NC(C)=O [CS-8958, laninamivir octanoate] | 129 nM | 947 nM | 389 nM
2 | CO[C@@H]([C@@H]1OC(C(=O)O)=C[C@H](NC(=N)N)[C@H]1NC(C)=O)[C@H](O)CO [laninamivir] | 3.12 nM |  | 0.9 nM
3 | CCOC(=O)C1=C[C@@H](OC(CC)CC)[C@H](NC(C)=O)[C@@H](N)C1 [oseltamivir] | 0.79 nM |  | 0.83 nM
